target: WDR5 (Homo sapiens, UniProt P61964); assay: Competition-based fluorescence polarization anisotropy assay; settings: binding to WDR5; displacement of FITC-labeled small molecule probe (analogous to Example J2 or HCH-25) or peptide probe FITC-AHx-SEEEIDVVSV; pH 6.0; Ki converted from IC50
Method: Compounds of the present invention were assessed for their ability to bind to WDr5 using a competition-based fluorescence polarization anisotropy assay, similar to the method previously described. […] Fluorescence polarization measurements were performed in 384-well plates (Greiner Bio One) using a Cytation 3 plate reader (BioTek). Fluorescein isothiocyanate (FITC)-labeled peptide probe ([…]) was purchased from GenScript USA Inc and used without further purification. […] The assay buffer contained 200 mM phosphate, 300 mM NaCl, and 0.5 mM TCEP and 0.1% Chaps at pH 6.0. […] This was converted into a binding dissociation constant (Ki value) according to the formula: […] Data shown in the table below represents a K; determined from this method for each Example, using either a fluorescently labeled small molecule probe analogous to Example J2 or Example HCH-25, or the peptide probe described above, in the assay.

Compared with `O=C(NCCO)c1cc(Cl)cc(NS(=O)(=O)c2cc(Br)ccc2O)c1O` [Example J16, 3-((5-Bromo-2-hydroxyphenyl)sulfonamido)-5-chloro-2-hydroxy-N-(2-hydroxyethyl)benzamide], `O=C(NCCCO)c1cc(Cl)cc(NS(=O)(=O)c2cc(Br)ccc2O)c1O` [Example J17, 3-((5-Bromo-2-hydroxyphenyl)sulfonamido)-5-chloro-2-hydroxy-N-(3-hydroxypropyl)benzamide] is 5-fold higher in Ki: 540 nM for the first, 2690 nM for the second.

First: O=C(NC1CCOC1)c1cc(Cl)cc(NS(=O)(=O)c2cc(Br)ccc2O)c1O (stereo not drawn) [Example J18, 3-((5-Bromo-2-hydroxyphenyl)sulfonamido)-5-chloro-2-hydroxy-N-(tetrahydrofuran-3-yl)benzamide]
Second: O=C(N[C@H]1CCOC1)c1cc(Cl)cc(NS(=O)(=O)c2cc(Br)ccc2O)c1O [Example J22, (S)-3-((5-Bromo-2-hydroxyphenyl)sulfonamido)-5-chloro-2-hydroxy-N-(tetrahydrofuran-3-yl)benzamide]
The Ki of the first is 2.9-fold higher: 1350 nM for the first, 470 nM for the second. The second binds more tightly here.

First: O=C(NCCN1CCOCC1)c1cc(Cl)cc(NS(=O)(=O)c2cc(Br)ccc2O)c1O [Example J19, 3-((5-Bromo-2-hydroxyphenyl)sulfonamido)-5-chloro-2-hydroxy-N-(2-morpholinoethyl)benzamide]
Second: O=C(c1cc(Cl)cc(NS(=O)(=O)c2cc(Br)ccc2O)c1O)N1CCOCC1 [Example J30, 5-Bromo-N-(5-chloro-2-hydroxy-3-(morpholine-4-carbonyl)phenyl)-2-hydroxybenzenesulfonamide]
The Ki of the first is 2-fold lower: 1180 nM for the first, 2360 nM for the second.

`O=C(NC1COC1)c1cc(Cl)cc(NS(=O)(=O)c2cc(Br)ccc2O)c1O` [Example J21, 3-((5-Bromo-2-hydroxyphenyl)sulfonamido)-5-chloro-2-hydroxy-N-(oxetan-3-yl)benzamide] and `O=C(NCC1CCOC1)c1cc(Cl)cc(NS(=O)(=O)c2cc(Br)ccc2O)c1O` (stereo not drawn) [Example J23, 3-((5-Bromo-2-hydroxyphenyl)sulfonamido)-5-chloro-2-hydroxy-N-((tetrahydrofuran-3-yl)methyl)benzamide] are within 1.5-fold of each other in Ki: 580 nM for the first, 490 nM for the second.

First: COC1CCN(C(=O)c2cc(Cl)cc(NS(=O)(=O)c3cc(Br)ccc3O)c2O)C1 (stereo not drawn) [Example J24, 5-Bromo-N-(5-chloro-2-hydroxy-3-(3-methoxypyrrolidine-1-carbonyl)phenyl)-2-hydroxybenzenesulfonamide]
Second: COC[C@H]1CCCN1C(=O)c1cc(Cl)cc(NS(=O)(=O)c2cc(Br)ccc2O)c1O [Example J28, (R)-5-Bromo-N-(5-chloro-2-hydroxy-3-(2-(methoxymethyl)pyrrolidine-1-carbonyl)phenyl)-2-hydroxybenzenesulfonamide]
The Ki of the first is 1.5-fold lower: 5440 nM for the first, 8290 nM for the second.

Going from `O=C(NCC1CCCO1)c1cc(Cl)cc(NS(=O)(=O)c2cc(Br)ccc2O)c1O` (stereo not drawn) [Example J25, 3-((5-Bromo-2-hydroxyphenyl)sulfonamido)-5-chloro-2-hydroxy-N-((tetrahydrofuran-2-yl)methyl)benzamide] to `O=C(NC[C@H]1CCCO1)c1cc(Cl)cc(NS(=O)(=O)c2cc(Br)ccc2O)c1O` [Example J26, (R)-3-((5-Bromo-2-hydroxyphenyl)sulfonamido)-5-chloro-2-hydroxy-N-((tetrahydrofuran-2-yl)methyl)benzamide], the Ki rises from 230 nM to 740 nM (3.2-fold). The first binds more tightly here.

Compared with `O=C(NC[C@@H]1CCCO1)c1cc(Cl)cc(NS(=O)(=O)c2cc(Br)ccc2O)c1O` [Example J27, (S)-3-((5-Bromo-2-hydroxyphenyl)sulfonamido)-5-chloro-2-hydroxy-N-((tetrahydrofuran-2-yl)methyl)benzamide], `COC[C@@H]1CCCN1C(=O)c1cc(Cl)cc(NS(=O)(=O)c2cc(Br)ccc2O)c1O` [Example J29, (S)-5-Bromo-N-(5-chloro-2-hydroxy-3-(2-(methoxymethyl)pyrrolidine-1-carbonyl)phenyl)-2-hydroxybenzenesulfonamide] is 5.1-fold higher in Ki: 780 nM for the first, 4000 nM for the second.

`O=C(NCc1ccccn1)c1cc(Cl)cc(NS(=O)(=O)c2cc(Br)ccc2O)c1O` [Example J31, 3-((5-Bromo-2-hydroxyphenyl)sulfonamido)-5-chloro-2-hydroxy-N-(pyridin-2-ylmethyl)benzamide] showed a Ki of 790 nM.

Source: patent publication US12398097B2, “WDR5-MYC inhibitors” (Vanderbilt University, priority 2019, dated 2025)
